# From patent publication US6281234A, “(2-Acylaminothiazole-4-yl)acetic acid derivative” (American Home Products Corporation, priority 1999, dated 2001)
# Biological target: T1, Recombinant Rat Protein Tyrosine Phosphatase 1B (rPTP1B) (Rattus norvegicus, UniProt P20417)
# T1 construct: laboratory of Dr. Barry Goldstein, Thomas Jefferson University (obtained from, not a commercial purchase)
# T1 sequence (P20417 1-432): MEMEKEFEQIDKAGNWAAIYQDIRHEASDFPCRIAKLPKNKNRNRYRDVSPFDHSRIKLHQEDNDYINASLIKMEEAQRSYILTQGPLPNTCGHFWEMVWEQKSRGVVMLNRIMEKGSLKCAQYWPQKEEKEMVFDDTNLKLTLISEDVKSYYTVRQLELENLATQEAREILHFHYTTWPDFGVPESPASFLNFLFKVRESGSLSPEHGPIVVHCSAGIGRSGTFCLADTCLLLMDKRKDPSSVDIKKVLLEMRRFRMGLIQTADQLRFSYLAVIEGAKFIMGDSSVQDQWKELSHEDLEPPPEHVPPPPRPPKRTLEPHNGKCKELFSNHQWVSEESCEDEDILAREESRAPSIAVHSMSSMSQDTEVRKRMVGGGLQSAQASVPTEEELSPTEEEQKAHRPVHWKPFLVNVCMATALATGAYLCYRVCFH
# Assay: Inhibition of recombinant rat PTP1B (rPTP1B) activity using p-nitrophenylphosphate as substrate
# Format: biochemical
# Conditions: All compounds administered at 25 μM; p-nitrophenyl phosphate substrate, pH 7.4, 37° C., 30 min
# Protocol: Inhibition of Recombinant Rat Protein Tyrosine Phosphatase 1B (rPTP1B) Activity Using p-nitrophenylphosphate as a Substrate.
# Measurement of pNPPase Activity.
# The reaction is started by the addition of p-nitrophenyl phosphate and after 30 minutes at 37° C., the reaction is terminated by adding 1 ml of 0.1 N NaOH. […] The samples are read at 410 nm in a spectrophotometer and are evaluated based on a calibration curve of p-nitrophenol standard solution.
# Compounds were screened robotically at a single concentration of ~25 μM. The results are expressed as percent of control, in that the amount of p-nitrophenol formed in the compound treated samples (nmol/minute/mg protein) is compared to the amount (nmol/minute/mg protein) formed in the untreated samples. p-Nitrophenylphosphatase activity is also determined in each experiment and is expressed per minute per mg protein.
row,SMILES,% inhibition [%]
1,"[Na+].[Na+].[Na+].[O]=[V]([O-])([O-])[O-] [Na3 VO4, reference compound]",86.3

# Same assay, conditions: All compounds administered at 25 μM; p-nitrophenyl phosphate substrate, pH 7.4, 37° C., 30 min; 25 µM
row,% inhibition [%],SMILES
1,93.9,"CCCCCCCC/C=C/CCCCCCCC(=O)Nc1nc(CC(=O)O)cs1 [Example 2, 2-[((E)-1-Oxo-9-octadecenyl)amino]-4-thiazoleacetic Acid]"
2,58.16,CCCCCCCC/C=C/CCCCCCCC(=O)Nc1nc(CC(=O)O)cs1 [Example 3]

# Same assay, conditions: pH 7.4, All compounds administered at 25 μM; p-nitrophenyl phosphate substrate, pH 7.4, 37° C., 30 min
row,inhibition at 25 µM [%],SMILES
1,93.4,"CCCCCCCC/C=C\CCCCCCCC(=O)Nc1nc(CC(=O)O)cs1 [Example 1, 2-[((Z)-1-Oxo-9-octadecenyl)amino]-4-thiazoleacetic Acid]"
2,95,CCCCCCCCCCC/C=C\CCCCC(=O)Nc1nc(CC(=O)O)cs1 [Example 5]
3,93.8,"CCCCCC/C=C\CCCCCCCC(=O)Nc1nc(CC(=O)O)cs1 [Example 6, 2-[((Z)-1-Oxo-9-hexadecenyl)amino]-4-thiazoleacetic Acid]"
4,83.8,"CCCCCC/C=C/CCCCCCCC(=O)Nc1nc(CC(=O)O)cs1 [Example 7, 2-[((E)-1-Oxo-9-hexadecenyl)amino]-4-thiazoleacetic Acid]"
5,96.6,"CCCCCC/C=C/CCCCCCCCCC(=O)Nc1nc(CC(=O)O)cs1 [Example 8, 2-[((E)-1-Oxo-11-octadecenyl)amino]-4-thiazoleacetic Acid]"

# The next lines start with the compound.
row,SMILES,inhibition at 25 µM [%]
1,CCCCCCCCC#CCCCCCCCC(=O)Nc1nc(CC(=O)O)cs1 [Example 4],84.8
2,"CC/C=C\C/C=C\C/C=C\CCCCCCCC(=O)Nc1nc(CC(=O)O)cs1 [Example 9, 2-[((Z,Z,Z)-1-Oxo-9,12,15-octadecatrienyl)amino]-4-thiazoleacetic Acid]",92.4
